Measured values reported in article PMC9820345, “Metal Complexes of a 5-Nitro-8-Hydroxyquinoline-Proline Hybrid with Enhanced Water Solubility Targeting Multidrug Resistant Cancer Cells” (International Journal of Molecular Sciences, 2022).
Like-named read-outs stand apart in the source and are kept apart here.

Legend:
[1] = n-Octanol/water distribution coefficients, shake-flask method; format: physicochemical; details: pH 7.40 (20 mM phosphate buffer); 100 mM chloride; 25.0 °C
Method: The traditional shake-flask method was used to obtain distribution coefficients of the ligands as well as of the complexes in n-octanol/buffered aqueous solution (20 mM phosphate, pH = 7.40 or 10 mM MES, pH 5.50) at different chloride ion concentrations (4, 24 and 100 mM) using UV-vis spectrophotometry (Agilent Cary 8454 diode array spectrophotometer, Santa Clara, CA, USA) for the analysis. The measurement and data evaluation were performed as described in our former work.

[2] = at 1 μM concentration; pH 7.4
Method: Thus, a ligand displacement study was performed spectrophotometrically using 2,2’-bipyridine as the competitor (Figure S21) to determine the stability constant for the RhCp* complex at pH 7.4.
SUPPLEMENTARY INFORMATION
Figure S 20. UV-vis spectr a recorded for the (a) RhCp* − HQNO2-L-Pro (1:1) and (b) RuCym −
HQNO2-L-Pro (1:1) systems at different times at pH 1. Absorbance values plotted against the time
measured in the (c) RhCp* − HQNO2-L-Pro (1:1) at 435 nm, and (d) RuCym − HQNO2-L-Pro (1:1) at
410 nm at pH 1 and 4 (indicated in the figure). { cligand = 50 μM; cRhCp* or RuCym = 50 μM; l = 1 cm; t =
Figure S 21. (a) UV -vis spectra of the R hCp*-HQNO2-L-Pro complex at various equivalents of 2,2’ -
bipyridine at pH 7.4 after 24 h waiting time and (b) the measured absorbance values at 4 35 nm plotted
against the 2,2’-bipyridine:complex ratio.
complex taken from Ref. [74]. {ccomplex = 50 μM; PBS’ buffer; l = 1 cm; t = 25.0 °C}
c (2,2'-bipyridine) / c (complex) […]

[3] = Proton dissociation constants (pKa) of the ligand by pH-potentiometric, UV-vis and 1H NMR titrations; format: physicochemical; details: for pKa: 25.0 °C
Method: Characterization of the protonation/deprotonation equilibrium processes of a bioactive molecule is important to reveal its actual chemical form and charge at a given pH. The proton dissociation constant (Ka) is a key physico-chemical parameter since it has an impact on many biopharmaceutical characteristics such as lipophilicity, water solubility, and albumin binding, which in turn directly influences pharmacokinetics. The pKa values of the protonated HQNO2-L-Pro were determined by pH-potentiometric, UV-vis (Figure 1a), and ^1H NMR spectroscopic titrations (Table 1).
The pH-potentiometric measurements were carried out at 25.0 ± 0.1 °C in water in the pH range between 2.0 and 11.5 at a constant ionic strength of 0.2 M KNO3. The titrations were performed in a carbonate-free KOH solution (0.20 or 0.10 M). The exact concentrations of HNO3, HCl, and KOH solutions were always determined by pH-potentiometric titrations. An Orion 710A pH-meter equipped with a Metrohm combined electrode (type 6.0234.100) and a Metrohm 665 Dosimat burette were used for the measurements. […] The average water ionization constant (pKw) was determined as 13.76 ± 0.01, which is in good agreement with the literature data. In the case of the titrations in 30% (v/v) DMSO/H2O, the calibration of the pH-potentiometric system was conducted as in our former works. Samples were degassed by bubbling purified argon through them for about 10 min prior to the measurements, and the inert gas was also passed over the solutions during the titrations. Stoichiometry of the species and their equilibrium constants were obtained similarly to that performed in our previous works, with the use of computer program Hyperquad2013 [50].
(§1) An Agilent Cary 8454 diode array spectrophotometer (Santa Clara, CA, USA) was used to obtain UV-vis spectra in the wavelength range 200–1000 nm, while spectra were recorded for the Fe(II)-containing samples using an Avantes (Avantes B.V., Apeldoorn, The Nederlands) AvaSpec-ULS2048CL-EVO spectrometer with an AvaLight-DHc light source and FDP-7UVIR200-2-VAR transmission dip probe. The titrations for the Fe(II)-containing samples were performed in a laboratory glove box (GP(Campus), Jacomex) (O2 content ≤ 1 ppm). The path length (ℓ) was 1 cm in most cases (the actual ℓ is always indicated in the legends of the figures). The concentrations of the ligands and complexes were between 40 and 200 µM, and 0.2 M KNO3 for the organometallic complexes or 0.1 M KCl for the Fe(II/III), Cu(II), and Zn(II) complexes were used to adjust the constant ionic strength. For HSA containing samples, complex concentrations were 50 µM, and 0.5, and 2 equiv. biomolecules were added for kinetic studies, respectively. For HSA model containing samples, complex concentrations were 50 µM, and the model concentrations were 0–150 µM and 0–500 µM, respectively, and the pH was 7.4 (PBS’). Spectra were always background and baseline corrected. The computer program HypSpec was used to obtain stability constants. Hydrolysis constants of the Fe(III), Fe(II), RuCym, and RhCp* species were included in the speciation models (see Table S4 with the data taken from References).
The Bruker Avance III HD Ascend 500 Plus instrument (Billerica, MA, USA) was used for NMR studies. ^1H NMR spectroscopic measurements were carried out with a WATERGATE water suppression pulse scheme in the presence of 10% (v/v) D2O/H2O in most cases. DSS internal standard was added to samples to obtain reference peaks. ^1H NMR titrations were carried out for the ligand alone, and for the organometallic complexes in the presence of 0.2 M KNO3. With the AHA and FHA model peptides, the measurements were performed at pH 7.4 (PBS’) at 0.5 or 1 mM metal complex concentrations, and 1:1, 1:2 or 2:1 peptide-to-metal complex ratios were applied. NMR titrations were also performed for the Zn(II)-ligand systems using 0.1 M KCl ionic strength. […]

[4] = Formation constants of Cu(II) complexes by UV-vis spectrophotometric titrations; format: physicochemical; details: I = 0.1 M KCl, 25.0 °C
Method: as §1

SMILES: Cc1ccc(C(C)C)cc1.O=C(O)[C@@H]1CCC[NH+]1Cc1cc([N+](=O)[O-])c2ccc[n+]3c2c1[O][Ru-]3[Cl].[Cl-] [RuCym-HQNO2-L-Pro, [RuCym(HQNO2-L-Pro)Cl]Cl]
- log D7.4 [1]: +0.06 ± 0.01

SMILES: CC1=C(C)[C](C)([Rh]([Cl])[O]c2c(C[NH+]3CCC[C@H]3C(=O)O)cc([N+](=O)[O-])c3cccnc23)C(C)=C1C.[Cl-] [RhCp*-HQNO2-L-Pro, [RhCp*(HQNO2-L-Pro)Cl]Cl]
- dissociation of the complex expected [2]: < 1%

SMILES: O=C(O)[C@@H]1CCCN1Cc1cc([N+](=O)[O-])c2cccnc2c1O [HQNO2-L-Pro, (2S)-1-((8-hydroxy-5-nitroquinolin-7-yl)methyl)pyrrolidin-1-ium-2-carboxylate]
- pKa ([3]; 0.10 M KCl, UV-vis, I = 0.10 M KCl, cligand 40 μM, read-out: pKa (NProH+)): 10.75 ± 0.03
- pKa ([3]; 0.10 M KCl, UV-vis, I = 0.10 M KCl, cligand 40 μM, read-out: pKa (OH)): 5.43 ± 0.03
- pKa ([3]; 0.20 M KNO3, 1H NMR, I = 0.20 M KNO3, cligand 1000 μM, read-out: pKa (NProH+)): > 10.5
- pKa ([3]; 0.20 M KNO3, 1H NMR, I = 0.20 M KNO3, cligand 1000 μM, read-out: pKa (OH)): 5.56 ± 0.03
- pKa ([3]; 0.20 M KNO3, UV-vis, I = 0.20 M KNO3, cligand 40 μM, read-out: pKa (NProH+)): 10.78 ± 0.03
- pKa ([3]; 0.20 M KNO3, UV-vis, I = 0.20 M KNO3, cligand 40 μM, read-out: pKa (OH)): 5.5 ± 0.03
- fraction of H2L ([3]; pH 5.5): 47%
- fraction of HL− ([3]; pH 5.5): 53%
- pKa ([3]; water, 0.20 M KNO3, pH-potentiometry, I = 0.20 M KNO3, cligand 1700 μM, read-out: pKa (NProH+)): 10.68 ± 0.07
- pKa ([3]; water, 0.20 M KNO3, pH-potentiometry, I = 0.20 M KNO3, cligand 1700 μM, read-out: pKa (OH)): 5.57 ± 0.09
- logβ [M(HL)2] [4]: 38.60 ± 0.03
- logβ [M(HL)(L)] [4]: 31.75 ± 0.03
- logβ [M(HL)] [4]: 19.40 ± 0.03
- logβ [M(L)2] [4]: 22.99 ± 0.03
- logβ [M(L)] [4]: 14.45 ± 0.03
